Data: patent publication US6569686B2, “Measurement of solubility-pH profiles” (Pion, Inc., priority 2000, dated 2003)
≈ marks a conversion by molar mass, not a printed value. Where “and” joins values, the source holds several entries; their conditions need not be identical. Identical values can stand only once. Like-named read-outs stand apart in the source and are kept apart here. Marks after values point to notes of the source that are not given here. Values belong to the compound of their own block, whether it stands above or below them.

Tests used:
[1] = literature (footnotes a, b); cited from earlier work
[2] = apparent pKa from fitted log S vs. pH curve; format: physicochemical; settings: saturated solutions; for pKa shift Δ: pKa shift Δ = pKa^APP − pKa, heading: pKa shift Δ = pKa^APP − pKa; for pKa shift Δ / pKa shift Δ (apparent pKa minus true pKa): DMSO-containing saturated solutions (FIG. 8); for pKa shift Δ (apparent pKa minus true pKa): read-out: pKa shift Δ = pKa^APP − pKa
[3] = true aqueous intrinsic solubility corrected from pKa shifts; format: physicochemical; settings: for solubility: aqueous buffer, kinetic from dmso stock; for log So (corrected): log of μg/mL, horizontal asymptote of dashed curve in FIG. 8
[4] = no DMSO, cited from earlier work; for Shake-Flask So: literature / private correspondence
[5] = true pKa; literature sources (footnotes a, b, h); cited from earlier work
[6] = solubility-pH by aqueous dilution method, 96-well UV; format: physicochemical; settings: kinetic from dmso stock
[7] = true pKa of the compounds (commercial pKa instruments / literature); format: physicochemical; settings: pION unpublished data (footnote f)
Source text: For ionizable molecules in dilute solutions (where salt precipitation may be ignored), when the log (logarithm) of the measured solubility is plotted vs. pH, the curve is bilinear, with one segment having a zero slope and the other segment having a unit slope (positive for acids and negative for bases). […]. In a simple aqueous equilibrium system, the pH where the asymptotes of the horizontal and diagonal segments intersect is equal to the pKa of the solute. Under such ideal circumstances, it is possible to determine the pKa and the intrinsic aqueous solubility, So, of the compound from the crossing of the segments [Z. T. Chowhan, J. Pharm. Sci. 1978, 67, 1257-1260; W. H. Streng, H. G. H. Tan, Int. J. Pharm. 1985, 25, 135-145]. Such pKa values can be directly measured by commercially-available devices [C. D. Bevan, A. P. Hill, D. P. Reynolds, Patent Cooperation Treaty, WO 99/13328, Mar. 18, 1999; Sirius Analytical Instruments Ltd., UK].
(2) Also, a novel and simple computational method is developed to extract the aqueous intrinsic solubilities of drug molecules from data altered by DMSO-drug binding, or drug-drug aggregation reactions, or drug reactions with non-ionizable excipients, using the difference between the apparent pKa measured by the analytical device and the true pKa measured by analytical devices available commercially (e.g., from Sirius Analytical Instruments Ltd., Forest Row, E. Sussex, UK).
We discovered that if one determines the pKa^APP (in the presence of the DMSO effect) in the solubility assay, and subtracts from it the true pKa (determined using commercial instruments such as those from Sirius, UK), the difference, when subtracted from the logarithm of the apparent (DMSO-distorted) solubility, So^APP, yields the true aqueous solubility constant:
Since the pKas of the studied compounds are known (Table 2), it was possible to calculate the pKa shifts (Δ values in Table 1).

[8] = solubility-pH by cosolvent method (50% v/v 1-propanol), 96-well UV; format: physicochemical; settings: universal buffer solution, aqueous buffer, kinetic from dmso stock, 0.26% v/v DMSO, read-out: So^APP (apparent intrinsic solubility)
Description: The “sample” track on the left side of FIG. 4a depicts a series of steps leading up to the taking of the sample spectrum in a water-cosolvent solution. A known quantity of sample (37) is added in a known volume of the universal buffer solution of known pH (38), the amount of said sample being sufficient to cause precipitation to occur in the formed saturated solution (39). After waiting a period of time to allow the saturated solution to reach a desired steady state, the solution is filtered (40) to remove the solid, and obtain a clear solution (41).
A volume Y of a water-miscible cosolvent 42 is added to a volume Z of solution 41 to produce a new solution 43, in which the compound is diluted by Z/(Y+Z), from its concentration in solution 41. The spectrum of solution 43 is then immediately taken by the UV spectrophotometer (44), to minimize evaporation of the water-cosolvent solution. The mathematical treatment of the spectral data yields the area-under-the-curve of the filtered cosolvent sample solution (43), AUCS^COS. […]
18. As soon as the solutions are mixed in step 17, the robot transfers 5 μL from the diluted sample stock solution (using the 20 μL tips) to the blank solutions whose spectra had just been read in step 16: 14→17 (Sd→U). […]
The solubility is calculated according to equation (8). The results for phenazopyridine stated in Table 2 were determined by the cosolvent method.

[9] = intrinsic solubility by pSOL Model 3 acid-base titrator; format: physicochemical; settings: pION unpublished data (footnote f)
Description: Solubility determinations are illustrated with 15 sparingly-soluble generic, mostly-ionizable drugs (FIG. 1), covering about three orders of magnitude in solubilities, with the lowest value being about 0.1 μg/mL (terfenadine at high pH). The ionizable bases include amiloride, amitriptyline, chlorpromazine, miconazole, nortriptyline, phenazopyridine, propranolol, and terfenadine. […] Piroxicam was picked as an example of an ampholyte, and griseofulvin as an example of a non-ionizable molecule. The results of the solubility measurements were compared to literature equilibrium solubility-pH values from reliable sources, and to values determined by the pSOL Model 3 (pION) acid-base titrator [A. Avdeef, C. M. Berger, C. Brownell, Pharm . Res. 2000, 17, 85-89].

[10] = literature (Roseman, Yalkowsky 1973); cited from earlier work
[11] = pH 3
[12] = saturated pH-buffered aqueous solution (universal buffer), read-out: corrected So (intrinsic solubility corrected for drug-DMSO/drug-aggregate effects)
[13] = universal buffer solution, 0.5% v/v DMSO, 4 h shaking, read-out: So^APP (apparent intrinsic solubility)
[14] = read-out: corrected So (intrinsic solubility corrected for drug-DMSO/drug-aggregate effects)
[15] = pKa (I = 0.012 M, 50 vol % CH3CN)

Compound: CN(C)CCC=C1c2ccccc2CCc2ccccc21 [amitriptyline]
- pSOL So [1]: 2.0^a μg/mL
- pKa shift Δ [2]: < 0
- solubility [3, 12]: 3 µg/mL
- Shake-Flask So [4]: 2.0^a μg/mL
- pKa [5]: 9.45^a
- solubility at 4 h [6, 13]: 56.9 µg/mL (≈ 205 µM)

Compound: Nc1ccc(/N=N/c2ccccc2)c(N)n1 [phenazopyridine]
- pKa [7]: 5.15
- solubility at 4 h [8]: 12.2 µg/mL (≈ 57.2 µM)
- pSOL So [9]: 14.3^f μg/mL
- pKa shift Δ [2]: ≥ 0
- pKa ([2]; saturated solutions containing 0.26% v/v DMSO, read-out: apparent pKa (pKa^APP)): 5.83
- solubility ([3]; saturated pH-buffered aqueous solution (universal buffer), from So^APP in 0.26% v/v DMSO, cosolvent method, read-out: corrected So (intrinsic solubility corrected for drug-DMSO/drug-aggregate effects)): 12.2 µg/mL

Compound: COC1=CC(=O)C[C@@H](C)[C@]12Oc1c(Cl)c(OC)cc(OC)c1C2=O [griseofulvin]
- solubility [3, 12]: 20.2 µg/mL
- Shake-Flask So [4]: 9^d μg/mL
- pKa [5]: non-
- solubility at 4 h [6, 13]: 37.6 µg/mL (≈ 107 µM)

Compound: NS(=O)(=O)c1cc(C(=O)O)c(NCc2ccco2)cc1Cl [furosemide]
- pSOL So [1]: 5.9^b μg/mL
- Shake-Flask So [4]: 12.0^b μg/mL

Compound: prostaglandin F2α
- pKa shift Δ = pKa^APP − pKa [10]: Δ < or = 0

Compound: CNCCC=C1c2ccccc2CCc2ccccc21 [nortriptyline]
- solubility at 4 h ([6]; universal buffer solution, in 0.5% v/v DMSO, read-out: solubility): > 98 µg/mL

Compound: CN(C)CCCN1c2ccccc2Sc2ccc(Cl)cc21 [chlorpromazine]
- solubility [3, 14]: 3.4 µg/mL
- log So (corrected) [3]: 0.528
- solubility at 4 h [6, 13]: 19.4 µg/mL (≈ 60.8 µM)

Compound: CC(C)NCC(O)COc1cccc2ccccc12 (stereo not drawn) [propranolol]
- solubility at 4 h ([6]; aqueous buffer, in 0.5% v/v DMSO, read-out: solubility): ~100 µg/mL (≈ 386 µM)

Compound: O=S(=O)(O)CCN1CCN(CCO)CC1 [HEPES, 4-(2-hydroxyethyl)-1-piperazineethanesulfonic acid]
- pKa (I = 0.020M) [11]: 7.48

Compound: CN1C(C(=O)Nc2ccccn2)=C(O)c2ccccc2S1(=O)=O [piroxicam]
- pKa ([2]; 0.5% v/v DMSO, solid curve in FIG. 8, read-out: apparent pKa (pKa^APP)): 6.05
- pKa shift Δ [2]: 0.98
- solubility [3, 14]: 1.1 µg/mL
- log So (corrected) [3]: 0.041
- pKa deduced from literature solubility data ([4]; Jinno et al.): 5.63
- Shake-Flask So [4]: 9.1^i μg/mL and 8-16^j μg/mL
- solubility at 4 h [6, 13]: 10.5 µg/mL (≈ 31.7 µM)

Compound: Clc1ccc(COC(Cn2ccnc2)c2ccc(Cl)cc2Cl)c(Cl)c1 (stereo not drawn) [miconazole]
- pKa [7]: 6.07
- pSOL So [9]: 0.7^f μg/mL
- pKa shift Δ (apparent pKa minus true pKa) [2]: < 0
- solubility [3, 12]: 1.6 µg/mL
- solubility at 4 h [6, 13]: 11.1 µg/mL (≈ 26.7 µM)

Compound: CC(C)(C)c1ccc(C(O)CCCN2CCC(C(O)(c3ccccc3)c3ccccc3)CC2)cc1 (stereo not drawn) [terfenadine]
- pKa [7]: 9.53
- pSOL So [9]: 0.1^f μg/mL
- pKa shift Δ (apparent pKa minus true pKa) [2]: < 0
- solubility ([3]; at high pH, read-out: solubility (lowest value)): ~0.1 µg/mL
- solubility [3, 12]: 0.1 µg/mL
- solubility at 4 h [6, 13]: 4.4 µg/mL (≈ 9.33 µM)

Continued, in another order:

- pKa [7]: 4.16
- pKa shift Δ (apparent pKa minus true pKa) [2]: > 0
- solubility [3, 12]: 20.2 µg/mL
- solubility at 4 h [6, 13]: 33.3 µg/mL (≈ 193 µM)
Compound: O=C(O)c1ccc2ccccc2c1 [2-naphthoic acid]
- Shake-Flask So [4]: 22.4^g μg/mL

- pKa (physchem; [15]): 4.56
Compound: O=C(O)CO [Glycolic Acid, glycolic acid]

- pKa (physchem; pH 3, pKa (I = 0.020M)): 9.13
Compound: OB(O)O [Boric Acid, boric acid]

- pKa (physchem; pH 3, pKa (I = 0.020M)): 6.08
- pKa (physchem; [15]): 6.24
Compound: O=S(=O)(O)CCN1CCOCC1 [MES monohydrate, 4-morpholine-ethanesulfonic acid]

- solubility [3, 12]: 4.1 µg/mL
- solubility at 4 h [6, 13]: 7.2 µg/mL (≈ 20.1 µM)
Compound: COc1ccc2c(c1)c(CC(=O)O)c(C)n2C(=O)c1ccc(Cl)cc1 [indomethacin]
- pSOL So [1]: 2.0^a μg/mL
- Shake-Flask So [4]: 2.0 µg/mL and 1 µg/mL

- solubility [3, 12]: 3.8 µg/mL
- solubility at 4 h [6, 13]: 22.6 µg/mL (≈ 76.3 µM)
Compound: O=C(O)Cc1ccccc1Nc1c(Cl)cccc1Cl [diclofenac]
- pSOL So [1]: 0.8^b μg/mL
- Shake-Flask So [4]: 0.6^b μg/mL

- pKa [7]: 3.01
- pSOL So [9]: 0.6^f μg/mL
- pKa shift Δ (apparent pKa minus true pKa) [2]: > 0
- solubility [3, 12]: 0.7 µg/mL
- solubility at 4 h [6, 13]: 4.6 µg/mL (≈ 16.1 µM)
Compound: CCCN(CCC)S(=O)(=O)c1ccc(C(=O)O)cc1 [probenecid]

- pKa (physchem; [15]): 8.95
Compound: NCCS(=O)(=O)O [Taurine, 2-aminoethanesulfonic acid]
